Earlier results in patent US20220175758A1, “COMPOSITIONS AND METHODS TO TREAT NON-ALCOHOLIC FATTY LIVER DISEASES (NAFLD)” (Coherus Biosciences, Inc., priority 2019, published 2022).

Conditions: monotherapy

SMILES: Cc1cc(F)c(C(=O)Nc2cccc(-c3nncn3C(C)C)n2)cc1-n1cnc(C2CC2)c1 [selonsertib]
- primary endpoint of the STELLAR-4 phase 3 clinical trial: failed to meet the primary endpoint
